Assay [1] has as its system Sicklepod, Cassia obtusifolia. Kind of assay: Preemergence herbicidal evaluation, CASOB. The assay is classed as in vivo, L. To be noted: 0.2500 kg/ha. From the text:
(§1) Results of herbicide evaluation are expressed on a rating scale (0-9). The scale is based upon a visual observation of plant stand, vigor, malformation, size, chlorosis and overall plant appearance as compared with a control.
(§2) The preemergence herbicidal activity of the test compounds of the present invention is exemplified by the following tests in which the seeds of a variety of monocotyledonous and dicotyledonous plants are separately mixed with potting soil and planted on top of approximately one inch of soil in separate pint cups. After planting, the cups are sprayed with the selected aqueous acetone solution containing test compound in sufficient quantity to provide the equivalent of about 0.0156 to 0.500 kg per hectare of test compound per cup. The treated cups are then placed on greenhouse benches, watered and cared for in accordance with conventional greenhouse procedures. From four to five weeks after treatment, the tests are terminated and each cup is examined and rated according to the rating system provided in Example 185.
(§3) The compounds evaluated are reported by compound number given in Example 185.

Assay [2] relates to Lambsquarters, Common, Chenopodium album. Nature of the assay: Preemergence herbicidal evaluation, CHEAL. The assay is classed as in vivo, L. To be noted: 0.2500 kg/ha.
Text: as §1, §2, §3

Assay [3] relates to Soybean, Williams, Glycine max. Kind of assay: Preemergence herbicidal evaluation, GLXMAW. To be noted: 0.2500 kg/ha. Format: in vivo, (L.) Merr. cv Williams.
Text: as §1, §2, §3

Assay [4] concerns Foxtail, Green, Setaria viridis. Kind of assay: Preemergence herbicidal evaluation, SETVI. To be noted: 0.2500 kg/ha. Format: in vivo, (L.) Beau.
Text: as §1, §2, §3

Assay [5] deals with Lambsquarters, Common, Chenopodium album. Nature of the assay: Postemergence herbicidal evaluation, CHEAL. Format: in vivo, L. To be noted: 0.0630 kg/ha. Summed up:
(§4)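 Test compounds, formulated in equal parts acetone and water plus 0.5% TWEEN 20, are applied by nozzle (40 psi) to seedlings about two weeks old at roughly 0.0157–0.500 kg/ha. Injury is scored 0–9 visually 4–5 weeks later, with multiple tests averaged.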

The test system of assay [6] is Barnyardgrass, Echinochloa crus-galli. Kind of assay: Postemergence herbicidal evaluation, ECHCG. Format: in vivo, (L.) Beau. To be noted: 0.0630 kg/ha. A digest of the protocol:
as §4

For assay [7], the system named is Wheat, Winter, cv Riband, Triticum aestivum. Kind of assay: Postemergence herbicidal evaluation, TRZAWR. Format: in vivo. To be noted: 0.0630 kg/ha. A digest of the protocol: as §4
Assay [8] deals with Corn, Field, Zea mays. Nature of the assay: Postemergence herbicidal evaluation, ZEAMX. The assay is classed as in vivo, L. To be noted: 0.0630 kg/ha. Summed up:
as §4

In assay [9] the test system is Rice, Tebonnet, Oryza sativa. Kind of assay: Preemergence herbicidal evaluation, ORYSAT. Format: in vivo, (L.) Tebonnet. To be noted: 0.2500 kg/ha.
Text: as §1, §2, §3

The test system of assay [10] is Barnyardgrass, Echinochloa crus-galli. Nature of the assay: Preemergence herbicidal evaluation, ECHCG. The assay is classed as in vivo, (L.) Beau. To be noted: 0.2500 kg/ha.
Text: as §1, §2, §3

The test system of assay [11] is Soybean, Williams, Glycine max. Kind of assay: Postemergence herbicidal evaluation, GLXMAW. Format: in vivo, (L.) Merr. cv Williams. To be noted: 0.0630 kg/ha. Summed up:
as §4

Assay [12] deals with Galium, Galium aparine. Kind of assay: Preemergence herbicidal evaluation, GALAP. Format: in vivo. To be noted: 0.2500 kg/ha.
Text: as §1, §2, §3

The test system of assay [13] is Morningglory, Ivyleaf, Ipomoea hederacea. Nature of the assay: Postemergence herbicidal evaluation, IPOHE. Format: in vivo, (L.) Jacq. To be noted: 0.0630 kg/ha. A digest of the protocol: as §4
Assay [14] concerns Corn, Field, Zea mays. Nature of the assay: Preemergence herbicidal evaluation, ZEAMX. Format: in vivo, L. To be noted: 0.2500 kg/ha.
Text: as §1, §2, §3

The test system of assay [15] is Sicklepod, Cassia obtusifolia. Nature of the assay: Postemergence herbicidal evaluation, CASOB. Format: in vivo, L. To be noted: 0.0630 kg/ha. A digest of the protocol:
as §4

The subject of assay [16] is Velvetleaf, Abutilon theophrasti. Nature of the assay: Preemergence herbicidal evaluation, ABUTH. The assay is classed as in vivo, Medic. To be noted: 0.2500 kg/ha.
Text: as §1, §2, §3

In assay [17] the test system is Rice, Tebonnet, Oryza sativa. Nature of the assay: Postemergence herbicidal evaluation, ORYSAT. Format: in vivo, (L.) Tebonnet. To be noted: 0.0630 kg/ha. Summed up: as §4
Assay [18] deals with Velvetleaf, Abutilon theophrasti. Nature of the assay: Postemergence herbicidal evaluation, ABUTH. Format: in vivo, Medic. To be noted: 0.0630 kg/ha. Summed up:
as §4

The test system of assay [19] is Foxtail, Green, Setaria viridis. Nature of the assay: Postemergence herbicidal evaluation, SETVI. To be noted: 0.0630 kg/ha. The assay is classed as in vivo, (L.) Beau. A digest of the protocol:
as §4

Assay [20] concerns Morningglory, Ivyleaf, Ipomoea hederacea. Nature of the assay: Preemergence herbicidal evaluation, IPOHE. Format: in vivo, (L.) Jacq. To be noted: 0.2500 kg/ha.
Text: as §1, §2, §3

In assay [21] the test system is Ragweed, Common, Ambrosia artemisifolia. Kind of assay: Preemergence herbicidal evaluation, AMBEL. To be noted: 0.2500 kg/ha. Format: in vivo, L.
Text: as §1, §2, §3

The test system is the same in assay [22]. Nature of the assay: Postemergence herbicidal evaluation, AMBEL. Format: in vivo, L. To be noted: 0.0630 kg/ha. A digest of the protocol: as §4
Assay [23] deals with Galium, Galium aparine. Nature of the assay: Postemergence herbicidal evaluation, GALAP. The assay is classed as in vivo. To be noted: 0.0630 kg/ha. Summed up:
as §4

Assay [24] relates to Wheat, Winter, cv Riband, Triticum aestivum. Nature of the assay: Preemergence herbicidal evaluation, TRZAWR. To be noted: 0.2500 kg/ha. Format: in vivo.
Text: as §1, §2, §3

As to `COC(=O)C(C)Oc1c(C)cc(C)cc1-c1nsc2ccc(-n3c(=O)cc(C(F)(F)F)n(C)c3=O)cc12` (stereo not drawn) [Compound 27, Methyl 2-{{6-{5-[3,6-dihydro-3-methyl-2,6-dioxo-4-(trifluoromethyl)-1(2H)-pyrimidinyl]-1,2-benzisothiazol-3-yl}-2,4-xylyl}oxy}propionate], the “herbicide rating (0-9)” value in assay [1] is recorded as 9.0; in [2], 9.0; in assay [3], 9.0; in [4], 9.0; in assay [5], 9.0; in assay [6], 7.0. The “herbicide rating (0-9)” value in [7] came to 8.5; in assay [8] it was 7.0; in assay [9] it was 2.0; in assay [10] it was 7.0; in [11] it was 7.0; in assay [12], 2.0. Further, the “herbicide rating (0-9)” value in assay [13] is 9.0; in assay [14], 4.0; in [15], 4.0; in [16], 9.0; in [17], 4.5; in [18], 9.0. Besides, the “herbicide rating (0-9)” value is reported as 7.0 in [19]; 6.0 in assay [20]; 9.0 in [21]; 9.0 in assay [22]; 9.0 in assay [23]; 5.0 in assay [24].

The record behind these values is patent US6156700A, “3-(1,2-Benzisothiazol- and isoxazol-5-yl)-2,4(1H,3H)-pyrimidinedione or thione and 3-(1,2-benzisothiazol- and isoxazol-5-yl)-4(3H)-pyrimidinone or thione herbicidal agents” (American Cyanmid Company, priority 1998, dated 2000).
